Data published in ChEMBL document CHEMBL6182939, “Searching for Synthetic Opioid Rescue Agents. 2: Identification of an Ultra-Potent Synthetic Opioid Rescue Agent” (J Med Chem, 2025).

Tests used:
[1] = target: T1, Delta-type opioid receptor (Homo sapiens, UniProt P41143); experiment: Antagonist activity against human DOR expressed in CHO-K1 cells assessed as maximal inhibition of forskolin-induced cAMP accumulation pretreated for 15 mins followed by forskolin addition measured after 30 mins by HitHunter cAMP assay normalized to naltrexone; assay type: functional, cell-based; conditions: filed as antagonist, time 45.0 min
[2] = Metabolic stability in human liver microsomes assessed as half life; assay type: ADME, Microsome; conditions: for t1/2: microsomes
[3] = Metabolic stability in mouse liver microsomes assessed as half life; assay type: ADME, Microsome; conditions: for t1/2: microsomes
CYP1A2 = CYP1A2 (Homo sapiens, UniProt P05177); experiment: (§1) Inhibition of CYP1A2 in human liver microsomes at 10 uM relative to control; assay type: ADME, Microsome; conditions: liver microsomes
CYP2C9 = CYP2C9 (Homo sapiens, UniProt P11712); experiment: (§2) Inhibition of CYP2C9 in human liver microsomes at 10 uM relative to control; assay type: ADME, Microsome; conditions: liver microsomes
CYP2C19 = CYP2C19 (Homo sapiens, UniProt P33261); experiment: (§3) Inhibition of CYP2C19 in human liver microsomes at 10 uM relative to control; assay type: ADME, Microsome; conditions: liver microsomes
CYP2D6 = CYP2D6 (Homo sapiens, UniProt P10635); experiment: (§4) Inhibition of CYP2D6 in human liver microsomes at 10 uM relative to control; assay type: ADME, Microsome; conditions: liver microsomes
CYP3A4 = CYP3A4 (Homo sapiens, UniProt P08684); experiment: (§5) Inhibition of CYP3A4 in human liver microsomes at 10 uM relative to control; assay type: ADME, Microsome; conditions: liver microsomes
[4] = target: T1, Delta-type opioid receptor
Mu-type opioid receptor = Mu-type opioid receptor (Homo sapiens, UniProt P35372); assay type: functional, cell-based, CHO-K1
[5] = Cmax in Sprague-Dawley rat plasma at 1 mg/kg, ip by LC-MS/MS analysis; assay type: ADME, organism-based
[6] = Half life in Sprague-Dawley rat plasma at 1 mg/kg, ip by LC-MS/MS analysis; assay type: ADME, organism-based
[7] = Cmax in Sprague-Dawley rat plasma at 2 mg/kg, ip by LC-MS/MS analysis; assay type: ADME, organism-based
[8] = Half life in Sprague-Dawley rat plasma at 2 mg/kg, ip by LC-MS/MS analysis; assay type: ADME, organism-based
[9] = Drug uptake in Sprague-Dawley rat brain at 1 mg/kg, ip by LC-MS/MS analysis; assay type: ADME, organism-based; conditions: in vivo
[10] = target: Kappa-type opioid receptor (Homo sapiens, UniProt P41145); assay type: functional, cell-based, CHO-K1
Cytochrome P450 1A2 = target: T2, Cytochrome P450 1A2 (Homo sapiens, UniProt P05177); experiment: as §1; assay type: ADME, Microsome; conditions: microsomes, 10 µM
T2 sequence (P05177 whole entry): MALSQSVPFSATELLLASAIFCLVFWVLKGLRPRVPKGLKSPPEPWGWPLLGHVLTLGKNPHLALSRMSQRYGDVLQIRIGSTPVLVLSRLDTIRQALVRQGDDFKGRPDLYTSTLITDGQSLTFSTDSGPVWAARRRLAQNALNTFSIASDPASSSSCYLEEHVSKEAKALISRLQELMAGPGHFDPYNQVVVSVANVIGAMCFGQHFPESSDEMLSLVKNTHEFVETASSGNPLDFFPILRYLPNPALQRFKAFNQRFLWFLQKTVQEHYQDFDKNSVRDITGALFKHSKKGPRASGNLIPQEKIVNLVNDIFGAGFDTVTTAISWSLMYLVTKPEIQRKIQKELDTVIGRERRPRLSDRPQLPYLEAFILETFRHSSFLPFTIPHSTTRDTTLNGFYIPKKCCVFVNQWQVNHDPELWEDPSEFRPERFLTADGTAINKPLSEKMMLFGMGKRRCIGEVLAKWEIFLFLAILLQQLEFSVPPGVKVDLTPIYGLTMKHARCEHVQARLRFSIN

Cytochrome P450 2C9 = Cytochrome P450 2C9 (Homo sapiens, UniProt P11712); experiment: as §2; assay type: ADME, Microsome; conditions: microsomes, 10 µM
Cytochrome P450 2C19 = Cytochrome P450 2C19 (Homo sapiens, UniProt P33261); experiment: as §3; assay type: ADME, Microsome; conditions: microsomes, 10 µM
Cytochrome P450 2D6 = Cytochrome P450 2D6 (Homo sapiens, UniProt P10635); experiment: as §4; assay type: ADME, Microsome; conditions: microsomes, 10 µM
Cytochrome P450 3A4 = Cytochrome P450 3A4 (Homo sapiens, UniProt P08684); experiment: as §5; assay type: ADME, Microsome; conditions: microsomes, 10 µM
[11] = Metabolic stability in mouse liver microsomes assessed as intrinsic clearance; assay type: ADME, Microsome
[12] = target: T3, Sodium-dependent dopamine transporter (Homo sapiens, UniProt Q01959); experiment: Inhibition of Dopamine transporter (unknown origin)
[13] = target: T4, Rho-associated protein kinase 1 (Homo sapiens, UniProt Q13464); experiment: Inhibition of ROCK1 (unknown origin)
[14] = target: T5, Sodium-dependent noradrenaline transporter (Homo sapiens, UniProt P23975); experiment: Inhibition of Norepinephrine transporter (unknown origin)
[15] = target: Voltage-gated inwardly rectifying potassium channel KCNH2 (Homo sapiens, UniProt Q12809); experiment: Inhibition of hERG channel; assay type: toxicity
hERG (KCNH2) = hERG (KCNH2) (Homo sapiens, UniProt Q12809); experiment: Inhibition of hERG channel assessed as maximal response; assay type: toxicity; conditions: read-out: Imax
[16] = target: Glutamate [NMDA] receptor; experiment: Inhibition of NMDA receptor (unknown origin); assay type: protein-complex assay, Homo sapiens
[17] = target: T3, Sodium-dependent dopamine transporter; experiment: Inhibition of Dopamine transporter (unknown origin) assessed as maximal response
[18] = target: T4, Rho-associated protein kinase 1; experiment: Inhibition of ROCK1 (unknown origin) assessed as maximal response
[19] = target: T5, Sodium-dependent noradrenaline transporter; experiment: Inhibition of Norepinephrine transporter (unknown origin) assessed as maximal response
[20] = target: Glutamate [NMDA] receptor (Homo sapiens) (UniProt Q05586+Q12879+Q13224+O15399+O60391+Q14957+Q8TCU5); experiment: Inhibition of NMDA receptor (unknown origin) assessed as maximal response; assay type: protein-complex assay
[21] = target: Alpha-1A adrenergic receptor (Homo sapiens) (UniProt P35348); experiment: Antagonist activity at alpha1A adrenoreceptor (unknown origin) assessed as maximal response; conditions: filed as antagonist
[22] = target: D(2) dopamine receptor (Homo sapiens) (UniProt P14416); experiment: Antagonist activity at D2S receptor (unknown origin) assessed as maximal response; conditions: filed as antagonist

Sequence of Cytochrome P450 3A4 (P08684 whole entry): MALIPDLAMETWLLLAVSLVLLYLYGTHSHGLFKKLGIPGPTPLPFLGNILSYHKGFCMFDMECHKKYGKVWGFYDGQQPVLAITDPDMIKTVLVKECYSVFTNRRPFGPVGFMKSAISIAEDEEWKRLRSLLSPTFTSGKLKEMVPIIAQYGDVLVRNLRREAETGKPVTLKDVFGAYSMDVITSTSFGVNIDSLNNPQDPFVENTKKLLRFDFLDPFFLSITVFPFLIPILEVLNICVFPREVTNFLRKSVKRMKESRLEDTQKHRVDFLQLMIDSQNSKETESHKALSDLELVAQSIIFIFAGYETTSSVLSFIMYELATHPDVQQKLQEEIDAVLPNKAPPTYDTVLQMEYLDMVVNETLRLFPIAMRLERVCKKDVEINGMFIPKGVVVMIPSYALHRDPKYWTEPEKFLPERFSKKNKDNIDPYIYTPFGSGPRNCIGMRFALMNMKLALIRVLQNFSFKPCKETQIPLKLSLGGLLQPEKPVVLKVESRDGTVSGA
Sequence of Cytochrome P450 2C9 (P11712 whole entry): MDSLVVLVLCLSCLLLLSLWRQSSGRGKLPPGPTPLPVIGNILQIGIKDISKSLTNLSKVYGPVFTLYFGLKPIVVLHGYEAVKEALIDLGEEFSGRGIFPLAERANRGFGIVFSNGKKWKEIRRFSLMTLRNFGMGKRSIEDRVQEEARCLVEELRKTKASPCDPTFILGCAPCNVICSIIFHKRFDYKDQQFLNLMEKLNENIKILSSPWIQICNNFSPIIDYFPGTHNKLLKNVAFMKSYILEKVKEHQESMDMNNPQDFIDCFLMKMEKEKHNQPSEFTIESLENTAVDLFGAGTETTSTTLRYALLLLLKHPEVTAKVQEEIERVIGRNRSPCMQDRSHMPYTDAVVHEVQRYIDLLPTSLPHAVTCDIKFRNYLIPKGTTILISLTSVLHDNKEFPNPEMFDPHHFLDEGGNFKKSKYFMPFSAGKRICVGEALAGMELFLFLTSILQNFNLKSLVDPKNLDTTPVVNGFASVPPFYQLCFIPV
Sequence of Cytochrome P450 2D6 (P10635 whole entry): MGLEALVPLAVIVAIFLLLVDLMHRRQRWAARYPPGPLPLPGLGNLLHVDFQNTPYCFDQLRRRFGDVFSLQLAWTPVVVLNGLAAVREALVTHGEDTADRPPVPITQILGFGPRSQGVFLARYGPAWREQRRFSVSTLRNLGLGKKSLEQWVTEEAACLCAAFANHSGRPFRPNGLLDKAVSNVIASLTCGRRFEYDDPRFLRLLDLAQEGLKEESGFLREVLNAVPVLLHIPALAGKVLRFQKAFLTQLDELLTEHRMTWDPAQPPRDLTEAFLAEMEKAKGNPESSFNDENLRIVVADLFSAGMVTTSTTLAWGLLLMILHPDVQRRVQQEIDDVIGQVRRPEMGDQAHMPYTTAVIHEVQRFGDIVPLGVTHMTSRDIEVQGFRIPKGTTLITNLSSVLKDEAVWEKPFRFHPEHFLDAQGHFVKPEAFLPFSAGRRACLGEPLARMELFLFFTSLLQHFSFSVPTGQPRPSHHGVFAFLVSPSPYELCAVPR
Sequence of Mu-type opioid receptor (P35372 whole entry): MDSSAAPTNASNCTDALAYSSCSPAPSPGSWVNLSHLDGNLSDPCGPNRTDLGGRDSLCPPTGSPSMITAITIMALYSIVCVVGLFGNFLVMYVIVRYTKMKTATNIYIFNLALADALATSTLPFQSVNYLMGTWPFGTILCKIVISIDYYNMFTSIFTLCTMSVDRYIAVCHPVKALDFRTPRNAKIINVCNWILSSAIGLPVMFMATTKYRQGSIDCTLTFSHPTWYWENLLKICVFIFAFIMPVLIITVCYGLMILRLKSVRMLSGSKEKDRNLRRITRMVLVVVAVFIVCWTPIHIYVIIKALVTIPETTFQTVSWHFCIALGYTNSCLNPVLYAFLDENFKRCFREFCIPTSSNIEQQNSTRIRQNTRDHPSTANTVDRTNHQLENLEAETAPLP
T1 sequence (P41143 whole entry): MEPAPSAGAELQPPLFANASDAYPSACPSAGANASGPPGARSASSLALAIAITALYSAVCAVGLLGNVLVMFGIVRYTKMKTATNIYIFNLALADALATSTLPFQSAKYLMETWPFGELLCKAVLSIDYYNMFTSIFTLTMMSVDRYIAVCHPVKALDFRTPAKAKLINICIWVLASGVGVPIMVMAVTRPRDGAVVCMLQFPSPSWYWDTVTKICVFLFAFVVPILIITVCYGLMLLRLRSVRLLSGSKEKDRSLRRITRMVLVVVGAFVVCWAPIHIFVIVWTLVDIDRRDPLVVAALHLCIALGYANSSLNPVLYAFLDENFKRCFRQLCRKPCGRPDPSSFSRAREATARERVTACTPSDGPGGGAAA
Sequence of Cytochrome P450 2C19 (P33261 whole entry): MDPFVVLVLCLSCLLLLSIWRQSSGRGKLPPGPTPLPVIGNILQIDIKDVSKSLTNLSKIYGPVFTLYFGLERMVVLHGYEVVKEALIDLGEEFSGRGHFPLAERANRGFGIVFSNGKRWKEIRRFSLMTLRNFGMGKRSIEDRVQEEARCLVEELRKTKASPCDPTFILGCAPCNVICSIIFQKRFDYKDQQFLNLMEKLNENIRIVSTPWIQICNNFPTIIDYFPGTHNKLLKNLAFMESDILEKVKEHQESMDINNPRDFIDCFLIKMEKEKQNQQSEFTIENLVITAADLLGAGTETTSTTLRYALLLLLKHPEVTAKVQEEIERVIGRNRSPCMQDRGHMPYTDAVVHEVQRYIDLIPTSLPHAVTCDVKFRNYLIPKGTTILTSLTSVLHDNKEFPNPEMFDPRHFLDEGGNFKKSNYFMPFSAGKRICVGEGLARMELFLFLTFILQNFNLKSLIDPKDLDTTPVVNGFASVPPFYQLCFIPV
Sequence of Kappa-type opioid receptor (P41145 whole entry): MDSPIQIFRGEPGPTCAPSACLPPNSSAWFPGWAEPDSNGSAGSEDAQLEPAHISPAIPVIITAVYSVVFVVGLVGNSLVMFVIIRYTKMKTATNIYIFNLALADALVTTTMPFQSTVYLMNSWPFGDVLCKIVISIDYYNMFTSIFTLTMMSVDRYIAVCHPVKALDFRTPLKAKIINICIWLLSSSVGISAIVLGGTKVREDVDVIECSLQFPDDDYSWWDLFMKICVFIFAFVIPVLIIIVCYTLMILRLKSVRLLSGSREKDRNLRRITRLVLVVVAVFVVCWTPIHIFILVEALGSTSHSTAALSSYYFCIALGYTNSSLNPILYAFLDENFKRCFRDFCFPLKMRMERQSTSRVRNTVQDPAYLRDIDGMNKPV
T5 sequence (P23975 whole entry): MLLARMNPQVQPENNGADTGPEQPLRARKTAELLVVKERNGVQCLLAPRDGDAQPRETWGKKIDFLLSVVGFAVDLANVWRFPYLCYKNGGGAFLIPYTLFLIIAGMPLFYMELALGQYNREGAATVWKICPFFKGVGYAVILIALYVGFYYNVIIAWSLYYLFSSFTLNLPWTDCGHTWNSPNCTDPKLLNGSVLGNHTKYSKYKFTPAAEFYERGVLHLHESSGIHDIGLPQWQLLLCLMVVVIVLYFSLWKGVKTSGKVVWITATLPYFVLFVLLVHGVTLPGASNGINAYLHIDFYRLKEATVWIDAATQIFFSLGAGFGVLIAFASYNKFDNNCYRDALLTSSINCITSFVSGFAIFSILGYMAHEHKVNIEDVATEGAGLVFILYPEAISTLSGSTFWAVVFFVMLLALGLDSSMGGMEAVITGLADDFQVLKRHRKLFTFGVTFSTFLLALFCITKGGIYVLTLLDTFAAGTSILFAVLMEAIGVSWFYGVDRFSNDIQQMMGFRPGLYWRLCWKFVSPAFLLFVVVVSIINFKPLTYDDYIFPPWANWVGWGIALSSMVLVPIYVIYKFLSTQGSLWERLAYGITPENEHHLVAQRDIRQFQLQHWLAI
T3 sequence (Q01959 whole entry): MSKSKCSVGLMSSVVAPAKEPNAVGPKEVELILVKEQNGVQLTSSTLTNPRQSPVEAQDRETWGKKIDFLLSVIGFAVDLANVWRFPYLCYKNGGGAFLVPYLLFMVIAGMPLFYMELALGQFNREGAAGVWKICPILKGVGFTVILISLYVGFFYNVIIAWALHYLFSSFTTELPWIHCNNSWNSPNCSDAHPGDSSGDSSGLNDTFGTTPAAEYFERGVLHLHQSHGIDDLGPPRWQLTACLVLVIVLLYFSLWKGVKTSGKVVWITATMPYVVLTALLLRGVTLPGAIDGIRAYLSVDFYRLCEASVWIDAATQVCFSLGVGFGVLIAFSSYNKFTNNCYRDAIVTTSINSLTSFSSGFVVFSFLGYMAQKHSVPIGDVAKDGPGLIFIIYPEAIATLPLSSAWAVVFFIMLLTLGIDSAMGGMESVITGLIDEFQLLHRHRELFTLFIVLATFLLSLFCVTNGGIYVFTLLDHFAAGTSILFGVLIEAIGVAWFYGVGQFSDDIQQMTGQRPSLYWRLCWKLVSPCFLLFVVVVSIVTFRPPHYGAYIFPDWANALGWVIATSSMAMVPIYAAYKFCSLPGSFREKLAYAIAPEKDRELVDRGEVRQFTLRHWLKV
Sequence of CYP3A4 (P08684 whole entry): as the sequence (P08684 whole entry) above
Sequence of CYP2C9 (P11712 whole entry): as the sequence (P11712 whole entry) above
Sequence of CYP2D6 (P10635 whole entry): as the sequence (P10635 whole entry) above

For `C[C@H]1CN(CC[C@H](O)C2CCCCC2)CC[C@@]1(C)c1cccc(O)c1`, the Imax [1] was 155%, the half-life ([2]; liver microsomes) was 6.4 min and the half-life ([3]; liver microsomes) was 1.9 min. For the same compound, the inhibition at 10 µM (CYP1A2) was 14.5%, the inhibition at 10 µM (CYP2C9) was 11.9% and the inhibition at 10 µM (CYP2C19) was 35.1%. The inhibition at 10 µM (CYP2D6) was 86.4%, the inhibition at 10 µM (CYP3A4) was 0% and the IC50 [4] was 3.98 nM.

In the case of `NC(=O)c1ccc(Oc2ccc(CNCCc3ccccc3)cc2OCc2ccccc2)nc1`, the IC50 (Mu-type opioid receptor) is reported as 3.16 nM, the Imax [1] is reported as 152% and the IC50 [4] is reported as 3.98 nM.

In the case of `Cl.NC(=O)c1ccc(Oc2ccc(CNCCc3ccccc3)cc2)nc1`, the Cmax [5] is reported as 92.8 ng/mL, the half-life [6] is reported as 91.2 min and the Cmax [7] is reported as 182 ng/mL. For the same compound, the half-life [8] was 20.9 min and the Drug uptake [9] was “Not_active”.

`C=CCN1CC[C@]23c4c5ccc(O)c4O[C@H]2[C@@H](OCCOCCOCCOCCOCCOCCOCCOC)CC[C@@]3(O)[C@H]1C5` gave an Imax [1] of 103%.

In the case of `COc1cc(CNCCC2CCCCC2)ccc1Oc1ccc(C(N)=O)cn1`, the IC50 (Mu-type opioid receptor) is reported as 3.16 nM.

Compound `COc1cc(CNC2Cc3ccccc3C2)ccc1Oc1ccc(C(N)=O)cn1` has an IC50 (Mu-type opioid receptor) of 0.398 nM, an IC50 [10] of 10 nM and an Imax [1] of 168%. It also gave an IC50 [4] of 0.631 nM.

In the case of `COc1cc(CNCCc2ccccc2)ccc1Oc1ccc(C(N)=O)cn1`, the Imax [1] is reported as 157%, the t1/2 [2] is reported as greater than 145 min and the t1/2 [3] is reported as 41.9 min. The “inhibition (INH)” value (Cytochrome P450 1A2) was 1%, the “inhibition (INH)” value (Cytochrome P450 2C9) was 13.1% and the “inhibition (INH)” value (Cytochrome P450 2C19) was 1.6%. For the same compound, the “inhibition (INH)” value (Cytochrome P450 2D6) was 61.2% and the “inhibition (INH)” value (Cytochrome P450 3A4) was 7.8%.

`C=CCN1CC[C@]23c4c5ccc(O)c4O[C@H]2C(=O)CC[C@@]3(O)[C@H]1C5` [NALOXONE] gave a half-life [8] of 20.9 min.

For `C=C1CC[C@@]2(O)[C@H]3Cc4ccc(O)c5c4[C@@]2(CCN3CC2CC2)[C@H]1O5`, the t1/2 [2] was greater than 145 min, the t1/2 [3] was 87.1 min and the “inhibition (INH)” value (Cytochrome P450 1A2) was 0%. The “inhibition (INH)” value (Cytochrome P450 2C9) was 0%, the “inhibition (INH)” value (Cytochrome P450 2C19) was 0% and the “inhibition (INH)” value (Cytochrome P450 2D6) was 68.2%. The “inhibition (INH)” value (Cytochrome P450 3A4) was 0.2%.

With `NC(=O)c1ccc(Oc2ccc(CNCCc3ccccc3)cc2)nc1` [listing 1 of 2 here] the t1/2 [2] was greater than 145 min, the t1/2 [3] was 62.9 min and the “inhibition (INH)” value (Cytochrome P450 1A2) was 0.6%. For the same compound, the “inhibition (INH)” value (Cytochrome P450 2C19) was 11.6%, the “inhibition (INH)” value (Cytochrome P450 2D6) was 72.7% and the “inhibition (INH)” value (Cytochrome P450 3A4) was 6.8%. The CLH [11] was 22.05 µL/min/mg, the IC50 [12] was 3020 nM and the IC50 [13] was 3740 nM. For the same compound, the IC50 [14] was 1500 nM, the IC50 [15] was 5550 nM and the Emax (hERG (KCNH2)) was 63.7%. For the same compound, the IC50 [16] was 4980 nM.

In the case of `CC(C)(NC(=O)C1=C(O)[C@@H]2Oc3c(O)ccc4c3[C@@]23CCN(CC2CC2)[C@H](C4)[C@]3(O)C1)c1nc(-c2ccccc2)no1` [NALDEMEDINE], the IC50 (Mu-type opioid receptor) is reported as 3.16 nM.

`NC(=O)c1ccc(Oc2ccc(CNCCc3ccccc3)cc2Cl)nc1` gave an IC50 (Mu-type opioid receptor) of 1.26 nM, an Imax [1] of 158% and a t1/2 [2] of 110.2 min. For the same compound, the t1/2 [3] was 13.6 min, the “inhibition (INH)” value (Cytochrome P450 1A2) was 12.1% and the “inhibition (INH)” value (Cytochrome P450 2C9) was 4.8%. For the same compound, the “inhibition (INH)” value (Cytochrome P450 2C19) was 9.1%, the “inhibition (INH)” value (Cytochrome P450 2D6) was 45.4% and the “inhibition (INH)” value (Cytochrome P450 3A4) was 0%.

Compound `NC(=O)c1ccc(Oc2ccc(CNCCc3ccccc3)cc2)nc1` [listing 2 of 2 here] has an Imax [1] of 230%, an Imax [17] of 71.5% and an Imax [18] of 76.1%. It also gave an Imax [19] of 83.9%, an Imax [20] of 64.3% and an Imax [21] of 99.9%. For the same compound, the Emax [22] was 99.4%.

In the case of `C=CC[N+]1(C)CC[C@]23c4c5ccc(O)c4O[C@H]2C(=O)CC[C@@]3(O)[C@H]1C5` (stereo partly drawn) [NALOXONE METHIODIDE], the IC50 (Mu-type opioid receptor) is reported as 631 nM.

In the case of `NC(=O)c1ccc(Oc2ccc(CNCCc3ccccc3)cc2)cc1`, the IC50 [10] is reported as 10 nM, the t1/2 [2] is reported as greater than 145 min and the t1/2 [3] is reported as 7.6 min. For the same compound, the “inhibition (INH)” value (Cytochrome P450 1A2) was 0%, the “inhibition (INH)” value (Cytochrome P450 2C9) was 9.5% and the “inhibition (INH)” value (Cytochrome P450 2C19) was 27.7%. For the same compound, the “inhibition (INH)” value (Cytochrome P450 2D6) was 66.4% and the “inhibition (INH)” value (Cytochrome P450 3A4) was 0%.

`COc1cc(CNCCC(C)C)ccc1Oc1ccc(C(N)=O)cn1` gave an IC50 (Mu-type opioid receptor) of 2 nM, an Imax [1] of 187% and a t1/2 [2] greater than 145 min. For the same compound, the t1/2 [3] was greater than 145 min, the “inhibition (INH)” value (Cytochrome P450 1A2) was 0% and the “inhibition (INH)” value (Cytochrome P450 2C9) was 9.7%. The “inhibition (INH)” value (Cytochrome P450 2C19) was 21.7%, the “inhibition (INH)” value (Cytochrome P450 2D6) was 35.2% and the “inhibition (INH)” value (Cytochrome P450 3A4) was 3.8%. The IC50 [4] was 5.01 nM.
